Measurements as given in BindingDB's records for patent US12209081 (Katholieke Universiteit Leuven, 2025).

Target: Transient receptor potential cation channel subfamily M member 3 (UniProt J9SQF3)
Assay: Monitoring the TRPM3 Ion Channel Driven Ca2+ Uptake
Method: In order to monitor the inhibition of the mouse TRPM3α2 (mTRPM3) ion channel by the compounds of the invention, a cellular system making use of an mTRPM3alpha2 or hTRPM3 overexpressing cell line (flip-in HEK293) was used. The TRPM3 channel was stimulated/opened with Pregnenolone sulfate (PS) (50 μM) which results in Ca2+ influx. For mTRPM3, the intracellular Ca2+ was measured with a Calcium responsive dye. Fluor-4 AM ester (Invitrogen). Cells were cultured until a confluence of 80-90%, washed with Versene (Invitrogen) and detached from the surface by a short incubation with 0.05% Trypsin (Invitrogen). The trypsination process was stopped by the addition of complete cell culture medium (DMEM, glutamax, 10% FCS,NEAA,Pen-Strep). Cells were collected and resuspended in Krebs buffer without Calcium at RT. Prior the cell seeding (±2000 cells/well into a black, 384 well plate (Greiner)) the diluted compound was added in the assay plate, together with the PS dissolved in Krebs buffer containing Calcium. […] Directly after cell addition the plates were read on an Envision fluorescence reader (Perkin Elmer) by an Excitation of 485 nm and emission at 535 nm. Channel inhibition was calculated compared to a non-PS stimulated control versus a condition stimulated with PS (50 μM) with vehicle. The ability of the compounds of the invention to inhibit this activity was determined as: Percentage inhibition=[1-((RFU determined for sample with test compound present—RFU determined for sample with positive control inhibitor) divided by (RFU determined in the presence of vehicle—RFU determined for sample with positive control inhibitor))]*100.

Chain of Transient receptor potential cation channel subfamily M member 3 (J9SQF3 whole entry): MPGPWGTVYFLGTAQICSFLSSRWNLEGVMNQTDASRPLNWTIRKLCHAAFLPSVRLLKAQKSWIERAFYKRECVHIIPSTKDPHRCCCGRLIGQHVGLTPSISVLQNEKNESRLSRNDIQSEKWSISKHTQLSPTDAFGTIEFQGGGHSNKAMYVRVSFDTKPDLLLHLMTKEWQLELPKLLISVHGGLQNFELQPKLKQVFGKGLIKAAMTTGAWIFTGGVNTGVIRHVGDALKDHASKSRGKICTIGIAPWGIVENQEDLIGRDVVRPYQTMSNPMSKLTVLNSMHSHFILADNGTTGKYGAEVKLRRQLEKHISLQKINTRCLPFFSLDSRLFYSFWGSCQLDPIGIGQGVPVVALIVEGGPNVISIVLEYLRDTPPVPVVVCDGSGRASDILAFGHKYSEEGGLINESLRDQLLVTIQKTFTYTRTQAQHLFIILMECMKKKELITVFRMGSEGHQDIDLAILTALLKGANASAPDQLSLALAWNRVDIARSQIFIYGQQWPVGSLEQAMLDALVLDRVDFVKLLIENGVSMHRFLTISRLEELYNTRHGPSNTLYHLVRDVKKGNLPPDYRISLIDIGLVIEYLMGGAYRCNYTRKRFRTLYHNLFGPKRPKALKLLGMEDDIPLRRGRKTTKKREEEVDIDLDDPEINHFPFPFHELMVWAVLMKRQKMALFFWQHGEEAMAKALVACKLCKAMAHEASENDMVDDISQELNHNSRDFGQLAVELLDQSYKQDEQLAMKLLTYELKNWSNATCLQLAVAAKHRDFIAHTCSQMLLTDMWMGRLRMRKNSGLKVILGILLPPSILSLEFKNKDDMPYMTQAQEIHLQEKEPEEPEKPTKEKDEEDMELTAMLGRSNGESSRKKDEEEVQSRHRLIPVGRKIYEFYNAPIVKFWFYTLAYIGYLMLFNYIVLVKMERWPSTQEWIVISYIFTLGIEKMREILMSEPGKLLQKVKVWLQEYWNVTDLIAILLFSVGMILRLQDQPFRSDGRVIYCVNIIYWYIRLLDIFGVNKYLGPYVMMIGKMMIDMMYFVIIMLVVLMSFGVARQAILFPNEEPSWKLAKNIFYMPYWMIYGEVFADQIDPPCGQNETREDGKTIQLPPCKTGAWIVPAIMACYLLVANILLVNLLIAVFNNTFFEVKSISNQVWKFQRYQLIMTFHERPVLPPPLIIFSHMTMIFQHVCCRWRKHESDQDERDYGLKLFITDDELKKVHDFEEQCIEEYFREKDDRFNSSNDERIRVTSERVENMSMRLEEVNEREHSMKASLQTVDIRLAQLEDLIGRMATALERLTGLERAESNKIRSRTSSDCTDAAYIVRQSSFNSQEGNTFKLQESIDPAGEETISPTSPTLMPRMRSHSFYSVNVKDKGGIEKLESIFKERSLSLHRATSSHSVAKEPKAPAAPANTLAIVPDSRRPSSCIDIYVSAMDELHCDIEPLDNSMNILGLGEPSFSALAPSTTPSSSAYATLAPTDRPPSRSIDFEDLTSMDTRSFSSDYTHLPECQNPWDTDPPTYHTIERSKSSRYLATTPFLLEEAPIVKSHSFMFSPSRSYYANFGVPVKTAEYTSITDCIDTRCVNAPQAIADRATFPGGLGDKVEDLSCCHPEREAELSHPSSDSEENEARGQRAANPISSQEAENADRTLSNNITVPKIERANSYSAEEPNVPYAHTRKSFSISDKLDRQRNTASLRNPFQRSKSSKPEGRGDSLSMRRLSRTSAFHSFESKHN

SMILES	IC50
Cc1oc2ccc(OCc3cccnn3)cc2c1C(=O)NC1CCNC1=O (stereo not drawn) [US12209081, Compound 030]	< 1000 nM
Cc1oc2ccc(OCc3cncc(C(F)(F)F)c3)cc2c1C(=O)N[C@H]1CCNC1 [US12209081, Compound 055]	> 20000 nM
Cc1oc2ccc(OCc3cccnc3C(F)(F)F)cc2c1C(=O)NC1(CO)COC1 [US12209081, Compound 133]	< 1000 nM
Cc1ncsc1COc1ccc2oc(C)c(C(=O)NC3(CN)CCC3)c2c1 [US12209081, Compound 137]	< 1000 nM
Cc1oc2ccc(OCc3cccnc3C(F)(F)F)cc2c1C(=O)Nc1cc[nH]n1 [US12209081, Compound 138]	< 1000 nM

The remaining lines, values ahead:

IC50	SMILES
< 1000 nM	Cc1oc2ccc(OCc3cccnc3C#N)cc2c1C(=O)NC1(CO)CCOCC1 [US12209081, Compound 347]
< 1000 nM	Cc1oc2ccc(OCc3ccnn3CC(F)F)cc2c1C(=O)N[C@H](CO)C(N)=O [US12209081, Compound 456-En-2]
< 1000 nM	Cc1nc(C)c(COc2ccc3oc(C)c(C(=O)N[C@H](CO)C(N)=O)c3c2)s1 [US12209081, Compound 458-En-2]
